Key:
[1] = target: GDP-bound HRAS wild-type protein (Homo sapiens, UniProt P01112); assay: Binding to HRAS by surface plasmon resonance (SPR), Single Cycle Kinetics; details: SPR, GDP-bound HRAS wild-type vs GDP-bound KRAS wild-type
[2] = target: GDP-bound NRAS wild-type protein (Homo sapiens, UniProt P01111); assay: Binding to NRAS by surface plasmon resonance (SPR), Single Cycle Kinetics; details: SPR, GDP-bound NRAS wild-type vs GDP-bound KRAS wild-type
GDP-bound NRAS wild-type protein, sequence (P01111 whole entry): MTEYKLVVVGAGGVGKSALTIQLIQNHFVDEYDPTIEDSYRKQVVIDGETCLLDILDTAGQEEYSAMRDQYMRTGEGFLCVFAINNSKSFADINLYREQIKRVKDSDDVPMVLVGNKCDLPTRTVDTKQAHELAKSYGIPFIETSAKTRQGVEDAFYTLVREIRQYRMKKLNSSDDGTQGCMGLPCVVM

GDP-bound HRAS wild-type protein, sequence (P01112 whole entry): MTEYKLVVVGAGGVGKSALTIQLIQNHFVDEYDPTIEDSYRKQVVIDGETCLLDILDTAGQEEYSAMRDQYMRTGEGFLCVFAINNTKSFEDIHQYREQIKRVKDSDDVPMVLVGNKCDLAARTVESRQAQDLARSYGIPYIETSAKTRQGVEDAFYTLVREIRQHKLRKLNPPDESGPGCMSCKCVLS

SMILES | HRAS/KRAS (ratio of KD value with respect to HRAS to KD value with respect to KRAS) [1] | NRAS/KRAS (ratio of KD value with respect to NRAS to KD value with respect to KRAS) [2]
CCO[C@@H]1C[C@H]2C(=O)NC3(CC(C)(C)C3)C(=O)N(C)[C@@H](C3CCCC3)C(=O)N(C)[C@H](C(=O)N(C)C)CC(=O)N(C)[C@@H](CC)C(=O)N[C@@H]([C@@H](C)CC)C(=O)N(C)CC(=O)N(C)[C@H]3C/C=C\CCN(C3=O)[C@@H](Cc3ccc(Cl)cc3F)C(=O)N(C)CC(=O)N[C@@H](CCc3cc(F)c(C(F)(F)F)c(F)c3)C(=O)N2C1 [PP2048] | B (a compound having 3 or more and less than 10 is denoted as B) | A (a compound having 10 or more and less than 20 is denoted as A)
CCO[C@@H]1C[C@H]2C(=O)NC3(CC(C)(C)C3)C(=O)N(C)[C@@H](C3CCCC3)C(=O)N(C)[C@H](C(=O)N(C)C)CC(=O)N(C)[C@@H](CC)C(=O)N[C@@H]([C@@H](C)CC)C(=O)N(C)CC(=O)N(C)[C@H]3C/C=C\CCN(C3=O)[C@@H](Cc3ccc(C(F)F)cc3)C(=O)N(C)CC(=O)N[C@@H](CCc3cc(F)c(C(F)(F)F)c(F)c3)C(=O)N2C1 [PP2049] | B (a compound having 3 or more and less than 10 is denoted as B) | A (a compound having 10 or more and less than 20 is denoted as A)
C=CCN1CC(=O)N(C)[C@H]2C/C=C\CCN(C2=O)[C@@H](Cc2ccc(C)cc2)C(=O)N(C)CC(=O)N[C@@H](CCc2cc(F)c(C(F)(F)F)c(F)c2)C(=O)N2C[C@H](OCC)C[C@H]2C(=O)NC2(CC(C)(C)C2)C(=O)N(C)[C@@H](C2CCCC2)C(=O)N(C)[C@H](C(=O)N(C)C)CC(=O)N(C)[C@@H](CC(C)C)C(=O)N[C@@H]([C@@H](C)CC)C1=O [PP2050] | A (a compound having 10 or more and less than 20 is denoted as A) | A (a compound having 10 or more and less than 20 is denoted as A)
C#CC[C@H]1C(=O)N[C@@H]([C@@H](C)CC)C(=O)N(C)CC(=O)N(C)[C@H]2C/C=C\CCN(C2=O)[C@@H](Cc2ccc(C(F)(F)F)cc2)C(=O)N(C)CC(=O)N[C@@H](CCc2ccc(C(F)(F)F)c(OC)c2)C(=O)N2C[C@H](OCC)C[C@H]2C(=O)NC2(CC(C)(C)C2)C(=O)N(C)[C@@H](C2CCCC2)C(=O)N(C)[C@H](C(=O)N(C)CC)CC(=O)N1C [PP2051] | A (a compound having 10 or more and less than 20 is denoted as A) | A (a compound having 10 or more and less than 20 is denoted as A)
C#CCN1CC(=O)N(C)[C@H]2C/C=C\CCN(C2=O)[C@@H](Cc2ccc(C)cc2)C(=O)N(C)CC(=O)N[C@@H](CCc2cc(F)c(C(F)(F)F)c(F)c2)C(=O)N2C[C@H](OCC)C[C@H]2C(=O)NC2(CC(C)(C)C2)C(=O)N(C)[C@@H](C2CCCC2)C(=O)N(C)[C@H](C(=O)N(C)C)CC(=O)N(C)[C@@H](CC(C)C)C(=O)N[C@@H]([C@@H](C)CC)C1=O [PP2052] | A (a compound having 10 or more and less than 20 is denoted as A) | A (a compound having 10 or more and less than 20 is denoted as A)
C#CC[C@H]1C(=O)N[C@@H]([C@@H](C)CC)C(=O)N(C)CC(=O)N(C)[C@H]2C/C=C\CCN(C2=O)[C@@H](Cc2ccc(C(F)(F)F)cc2)C(=O)N(C)CC(=O)N[C@@H](CCc2ccc(C(F)(F)F)c(OC)c2)C(=O)N2C[C@H](OCC)C[C@H]2C(=O)NC2(CC(C)(C)C2)C(=O)N(C)[C@@H](C2CCCC2)C(=O)N(C)[C@H](C(=O)N(C)CCC)CC(=O)N1C [PP2053] | A (a compound having 10 or more and less than 20 is denoted as A) | A (a compound having 10 or more and less than 20 is denoted as A)
CCC[C@H]1C(=O)N[C@@H]([C@@H](C)CC)C(=O)N(CCC)CC(=O)N(C)[C@H]2C/C=C\CCN(C2=O)[C@@H](Cc2ccc(C)cc2)C(=O)N(C)CC(=O)N[C@@H](CCc2ccc(C(F)(F)F)c(OC)c2)C(=O)N2C[C@H](OCC)C[C@H]2C(=O)NC2(CC(C)(C)C2)C(=O)N(C)[C@@H](C2CCCC2)C(=O)N(C)[C@H](C(=O)N(C)C)CC(=O)N1C [PP2054] | A (a compound having 10 or more and less than 20 is denoted as A) | A (a compound having 10 or more and less than 20 is denoted as A)
C#CC[C@H]1C(=O)N[C@@H]([C@@H](C)CC)C(=O)N(C)CC(=O)N(C)[C@H]2C/C=C\CCN(C2=O)[C@@H](Cc2ccc(C(F)(F)F)cc2)C(=O)N(C)CC(=O)N[C@@H](CCc2ccc(C(F)(F)F)c(OC)c2)C(=O)N2C[C@@H](C)C[C@H]2C(=O)NC2(CC(C)(C)C2)C(=O)N(C)[C@@H](C2CCCC2)C(=O)N(C)[C@H](C(=O)N(C)CC)CC(=O)N1C [PP2055] | B (a compound having 3 or more and less than 10 is denoted as B) | A (a compound having 10 or more and less than 20 is denoted as A)
C#CC[C@H]1C(=O)N[C@@H]([C@@H](C)CC)C(=O)N(C)CC(=O)N(C)[C@H]2C/C=C\CCN(C2=O)[C@@H](Cc2ccc(C(F)(F)F)cc2)C(=O)N(C)CC(=O)N[C@@H](CCc2ccc(C(F)(F)F)c(OC)c2)C(=O)N2C[C@@H](C)C[C@H]2C(=O)NC2(CC(C)(C)C2)C(=O)N(C)[C@@H](C2CCCC2)C(=O)N(C)[C@H](C(=O)N(C)CCC)CC(=O)N1C [PP2057] | A (a compound having 10 or more and less than 20 is denoted as A) | A (a compound having 10 or more and less than 20 is denoted as A)
C=CCN1CC(=O)N(C)[C@H]2C/C=C\CCN(C2=O)[C@@H](Cc2ccc(C)cc2)C(=O)N(C)CC(=O)N[C@@H](CCc2ccc(C(F)(F)F)c(OC)c2)C(=O)N2C[C@H](OCC)C[C@H]2C(=O)NC2(CC(C)(C)C2)C(=O)N(C)[C@@H](C2CCCC2)C(=O)N(C)[C@H](C(=O)N(C)C)CC(=O)N(C)[C@@H](CC(C)C)C(=O)N[C@@H]([C@@H](C)CC)C1=O [PP2058] | A (a compound having 10 or more and less than 20 is denoted as A) | A (a compound having 10 or more and less than 20 is denoted as A)
C#CC[C@H]1C(=O)N[C@@H]([C@@H](C)CC)C(=O)N(C)CC(=O)N(C)[C@H]2C/C=C\CCN(C2=O)[C@@H](Cc2ccc(C(F)(F)F)cc2)C(=O)N(C)CC(=O)N[C@@H](CCc2ccc(C(F)(F)F)c(OC)c2)C(=O)N2C[C@H](OCC)C[C@H]2C(=O)NC2(CCC2)C(=O)N(C)[C@@H](C2CCCC2)C(=O)N(C)[C@H](C(=O)N(C)CCC)CC(=O)N1C [PP2059] | A (a compound having 10 or more and less than 20 is denoted as A) | A (a compound having 10 or more and less than 20 is denoted as A)
C#CC[C@H]1C(=O)N[C@@H]([C@@H](C)CC)C(=O)N(C)CC(=O)N(C)[C@H]2C/C=C\CCN(C2=O)[C@@H](Cc2ccc(C(F)(F)F)cc2)C(=O)N(C)CC(=O)N[C@@H](CCc2ccc(C(F)(F)F)c(OC)c2)C(=O)N2C[C@@H](C)C[C@H]2C(=O)NC2(CCC2)C(=O)N(C)[C@@H](C2CCCC2)C(=O)N(C)[C@H](C(=O)N(C)CC)CC(=O)N1C [PP2061] | A (a compound having 10 or more and less than 20 is denoted as A) | AA (a compound having 20 or more is denoted as AA)
CCO[C@@H]1C[C@H]2C(=O)NC3(CC(C)(C)C3)C(=O)N(C)[C@@H](C(CC)CC)C(=O)N(C)[C@H](C(=O)N(C)C)CC(=O)N(C)[C@@H](CC)C(=O)N[C@@H]([C@@H](C)CC)C(=O)N(C)CC(=O)N(C)[C@H]3C/C=C\CCN(C3=O)[C@@H](Cc3ccc(C(F)(F)F)cc3)C(=O)N(C)CC(=O)N[C@@H](CCc3cc(F)c(C(F)(F)F)c(F)c3)C(=O)N2C1 [PP2062] | A (a compound having 10 or more and less than 20 is denoted as A) | AA (a compound having 20 or more is denoted as AA)
C#CC[C@H]1C(=O)N[C@@H]([C@@H](C)CC)C(=O)N(C)CC(=O)N(C)[C@H]2C/C=C\CCN(C2=O)[C@@H](Cc2ccc(C(F)(F)F)cc2)C(=O)N(C)CC(=O)N[C@@H](CCc2ccc(C(F)(F)F)c(OC)c2)C(=O)N2C[C@@H](C)C[C@H]2C(=O)NC2(CCC2)C(=O)N(C)[C@@H](C2CCCC2)C(=O)N(C)[C@H](C(=O)N(C)CCC)CC(=O)N1C [PP2063] | A (a compound having 10 or more and less than 20 is denoted as A) | AA (a compound having 20 or more is denoted as AA)
CCC[C@H]1C(=O)N[C@@H]([C@@H](C)CC)C(=O)N(C)CC(=O)N(C)[C@H]2C/C=C\CCN(C2=O)[C@@H](Cc2ccc(C)cc2)C(=O)N(C)CC(=O)N[C@@H](CCc2cc(F)c(C(F)(F)F)c(F)c2)C(=O)N2C[C@H](OCC)C[C@H]2C(=O)NC2(CC(C)(C)C2)C(=O)N(C)[C@@H](C(CC)CC)C(=O)N(C)[C@H](C(=O)N(C)C)CC(=O)N1C [PP2064] | A (a compound having 10 or more and less than 20 is denoted as A) | A (a compound having 10 or more and less than 20 is denoted as A)
CC[C@H](C)[C@@H]1NC(=O)[C@H](C(C)C)N(C)C(=O)C[C@@H](C(=O)N(C)CC)N(C)C(=O)[C@H](C2CCCC2)N(C)C(=O)C2(CCC2)NC(=O)[C@@H]2C[C@H](C)CN2C(=O)[C@H](CCc2ccc(C(F)(F)F)c(OC)c2)NC(=O)CN(C)C(=O)[C@H](Cc2ccc(C(F)(F)F)cc2)N2CC/C=C\C[C@@H](C2=O)N(C)C(=O)CN(C)C1=O [PP2065] | B (a compound having 3 or more and less than 10 is denoted as B) | A (a compound having 10 or more and less than 20 is denoted as A)

Source: patent publication US20250230193A1, “CYCLIC COMPOUND HAVING SELECTIVE KRAS INHIBITORY EFFECT ON HRAS AND NRAS” (CHUGAI SEIYAKU KABUSHIKI KAISHA, priority 2022, published 2025)
